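Method: 48-hour compound exposure of cells in 96-well plates, five concentrations, linear interpolation of endpoints. Here, GI50 denotes the concentration required for 50% inhibition of growth.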 The source made the active and inactive calls. Rule as the data show it: active = GI50 up to about 1.1 µM and inactive = higher.
Assays:
Assay in all cases: inhibition of tumour cell growth, NCI panel, 48 h
OVCAR-3 = test system: OVCAR-3
MOLT-4 = test system: MOLT-4
LOX IMVI = test system: LOX IMVI
HCT-116 = test system: HCT-116
Hs-578T = test system: Hs-578T
HOP-92 = test system: HOP-92
SNB-19 = test system: SNB-19
HCC 2998 = test system: HCC 2998
PC-3 = test system: PC-3
CCRF-CEM = test system: CCRF-CEM
MCF7 = test system: MCF7
M14 = test system: M14
SF-295 = test system: SF-295
OVCAR-5 = test system: OVCAR-5
SF-268 = test system: SF-268
786-0 = test system: 786-0
SNB-75 = test system: SNB-75
K562 = test system: K562
DU-145 = test system: DU-145
ACHN = test system: ACHN

Measured: GI50

Cc1c(C)c(C)c(-n2c(=O)n(C)c(=O)n2-c2cc(C(C)(C)C)cc(C(C)(C)C)c2O)c(C)c1C
inactive: OVCAR-3 4.68 µM | MOLT-4 4.18 µM | LOX IMVI 13.6 µM | HCT-116 5.79 µM | Hs-578T 10.4 µM | HOP-92 5.5 µM | SNB-19 5.74 µM | HCC 2998 9.93 µM | PC-3 3.03 µM | CCRF-CEM 8.13 µM | MCF7 4.06 µM | M14 10.2 µM | SF-295 8.99 µM | OVCAR-5 13.3 µM | SF-268 12.4 µM | 786-0 10.4 µM | SNB-75 4.14 µM | K562 6.21 µM | DU-145 12.7 µM | ACHN 12.2 µM

COc1cc2c(c(OC)c1OC)C(=O)c1c(O)cc(C)c(OC)c1C2=O
inactive: OVCAR-3 > 100 µM | MOLT-4 > 100 µM | LOX IMVI 86.3 µM | HCT-116 99.1 µM | Hs-578T 15.6 µM | HOP-92 > 100 µM | SNB-19 77.1 µM | HCC 2998 > 100 µM | PC-3 > 100 µM | CCRF-CEM > 10 µM | MCF7 > 100 µM | M14 > 100 µM | SF-295 82.6 µM | OVCAR-5 > 100 µM | SF-268 > 100 µM | 786-0 78.3 µM | SNB-75 > 100 µM | K562 > 10 µM | DU-145 > 100 µM | ACHN 46 µM

O=C1C=C(Nc2cccnc2)c2ccccc2/C1=N/O
inactive: OVCAR-3 1.81 µM | MOLT-4 15.7 µM | LOX IMVI 26.3 µM | HCT-116 26.6 µM | Hs-578T 33.4 µM | HOP-92 21.8 µM | SNB-19 1.38 µM | HCC 2998 22.5 µM | PC-3 19.5 µM | CCRF-CEM 5.85 µM | MCF7 21.6 µM | M14 23.2 µM | SF-295 39.2 µM | OVCAR-5 > 100 µM | SF-268 9.77 µM | 786-0 57.7 µM | SNB-75 5.69 µM | K562 24.7 µM | DU-145 50.5 µM | ACHN 23.2 µM

CCn1c(=O)c2cn[nH]c2n(C)c1=O
inactive: OVCAR-3 > 100 µM | MOLT-4 > 100 µM | LOX IMVI > 100 µM | HCT-116 > 100 µM | Hs-578T > 100 µM | HOP-92 > 100 µM | SNB-19 > 100 µM | HCC 2998 > 100 µM | PC-3 > 100 µM | CCRF-CEM > 100 µM | MCF7 > 100 µM | M14 > 100 µM | SF-295 > 100 µM | OVCAR-5 > 100 µM | SF-268 > 100 µM | 786-0 > 100 µM | SNB-75 > 100 µM | K562 > 100 µM | DU-145 > 100 µM | ACHN > 100 µM

O=C(O)c1cc(C(=O)O)nc(C(=O)O)c1
inactive: OVCAR-3 > 100 µM | MOLT-4 > 100 µM | LOX IMVI > 100 µM | HCT-116 > 100 µM | Hs-578T > 100 µM | HOP-92 > 100 µM | SNB-19 > 100 µM | HCC 2998 > 100 µM | PC-3 > 100 µM | CCRF-CEM 42.7 µM | MCF7 > 100 µM | M14 > 100 µM | SF-295 > 100 µM | OVCAR-5 > 100 µM | SF-268 > 100 µM | 786-0 > 100 µM | SNB-75 > 100 µM | K562 > 100 µM | DU-145 > 100 µM | ACHN > 100 µM

COc1ccc(/N=C(C)/C(C)=N/c2ccc(OC)cc2)cc1
inactive: OVCAR-3 > 100 µM | MOLT-4 15.6 µM | LOX IMVI 5.02 µM | HCT-116 72.6 µM | Hs-578T > 100 µM | HOP-92 88.1 µM | SNB-19 > 100 µM | HCC 2998 20.2 µM | PC-3 40.7 µM | CCRF-CEM 39.1 µM | MCF7 > 100 µM | M14 9.91 µM | SF-295 17 µM | OVCAR-5 > 100 µM | SF-268 52.5 µM | 786-0 > 100 µM | SNB-75 > 100 µM | K562 64.9 µM | DU-145 30.9 µM | ACHN 3.36 µM

COC(=O)c1ccccc1C1CN=NC12Cc1c(ccc(C)c1C)C2=O (stereo not given)
inactive: OVCAR-3 45.7 µM | MOLT-4 > 100 µM | LOX IMVI > 100 µM | HCT-116 > 100 µM | Hs-578T 80.9 µM | HOP-92 21.3 µM | SNB-19 85.9 µM | HCC 2998 > 100 µM | PC-3 90.6 µM | CCRF-CEM > 100 µM | MCF7 > 100 µM | M14 > 100 µM | SF-295 > 100 µM | OVCAR-5 > 100 µM | SF-268 39.1 µM | 786-0 38.4 µM | SNB-75 22 µM | K562 > 100 µM | DU-145 > 100 µM | ACHN > 100 µM

Clc1ncnc2c1nc(C#Cc1ccccc1)n2C1CCCCO1 (stereo not given)
inactive: OVCAR-3 1.37 µM | MOLT-4 2.02 µM | LOX IMVI 2.02 µM | HCT-116 1.82 µM | Hs-578T 3.95 µM | HOP-92 1.8 µM | SNB-19 2.53 µM | HCC 2998 2.1 µM | PC-3 3.27 µM | CCRF-CEM 2.33 µM | MCF7 1.37 µM | M14 2.14 µM | SF-295 4.47 µM | OVCAR-5 2.42 µM | SF-268 2.32 µM | 786-0 1.42 µM | SNB-75 2.6 µM | K562 1.38 µM | DU-145 1.47 µM | ACHN 1.69 µM

COC(=O)c1ccccc1C1CN=NC12Cc1c(C)ccc(C)c1C2=O (stereo not given)
inactive: OVCAR-3 > 100 µM | MOLT-4 88.5 µM | LOX IMVI > 100 µM | HCT-116 82.6 µM | Hs-578T > 100 µM | HOP-92 23.3 µM | SNB-19 > 100 µM | HCC 2998 > 100 µM | PC-3 > 100 µM | CCRF-CEM > 100 µM | MCF7 > 100 µM | M14 > 100 µM | SF-295 > 100 µM | OVCAR-5 > 100 µM | SF-268 > 100 µM | 786-0 > 100 µM | SNB-75 > 100 µM | K562 68.5 µM | DU-145 > 100 µM | ACHN > 100 µM

CN(C)CCCc1c[nH]c2ccccc12
inactive: OVCAR-3 > 100 µM | MOLT-4 > 100 µM | LOX IMVI > 100 µM | HCT-116 > 100 µM | Hs-578T > 100 µM | HOP-92 > 100 µM | SNB-19 > 100 µM | HCC 2998 > 100 µM | PC-3 > 100 µM | CCRF-CEM > 100 µM | MCF7 > 100 µM | M14 > 100 µM | SF-295 > 100 µM | OVCAR-5 > 100 µM | SF-268 > 100 µM | 786-0 > 100 µM | SNB-75 > 100 µM | K562 > 100 µM | DU-145 > 100 µM | ACHN > 100 µM

COc1c(O)c2ccccc2c2cc(O)ccc12
inactive: OVCAR-3 8.81 µM | MOLT-4 8.61 µM | LOX IMVI 2 µM | HCT-116 4.53 µM | Hs-578T 17.4 µM | HOP-92 10.6 µM | SNB-19 13.6 µM | HCC 2998 17.3 µM | PC-3 16.6 µM | CCRF-CEM 6.24 µM | MCF7 2.39 µM | M14 3.64 µM | SF-295 10 µM | OVCAR-5 13.4 µM | SF-268 10.8 µM | 786-0 12.2 µM | SNB-75 8.17 µM | K562 2.72 µM | DU-145 8.22 µM | ACHN 3.55 µM

Source: ChEMBL document CHEMBL1201862, “PubChem BioAssay data set” (2004)
